Experiment [1] concerns phosphorylation of AKT on Ser473 as a readout of the PI3K pathway in T-47D (heterozygous PIK3CA H1047R) cells. Nature of the experiment: PI3K pathway activation assay, pAKT Ser473 HTRF, T-47D cells. Particulars: two hours of treatment. The experiment is classed as cell-based. In outline: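 pAKT Ser473 measured by HTRF in SKBR3 (PIK3CA WT) and T-47D (PIK3CA H1047R) cells, 4,000/well. Signal normalised to background and DMSO controls as percent inhibition.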

The test system of experiment [2] is phosphorylation of AKT on Ser473 as a readout of the PI3K pathway in SKBR3 (PIK3CA WT) cells. Nature of the experiment: PI3K pathway activation assay, pAKT Ser473 HTRF, SKBR3 cells. Particulars: two hours of treatment. Format: cell-based. The procedure:
The inhibitory activity of compounds was evaluated by measuring phosphorylation of AKT on Ser473 as a readout of the PI3K pathway using HTRF (CisBio catalog number: 64AKSPE). These studies were conducted in the T-47D (heterozygous PIK3CA H1047R) and SKBR3 (PIK3CA WT) cell lines. Cells were maintained in a 37° C. incubator at 5% CO2 in the following media: T-47D: RPMI 1640, ATCC© Modification (Gibco, A10491-01) supplemented with 10% v/v FBS (Gibco, 26140-079), 1% penicillin streptomycin (Gibco, 15140-122), and 7.4 ug/mL insulin (MilliporeSigma, I9278); SKBR3: McCoy's 5a (Modified) Medium (Gibco, 16600-082) supplemented with 10% v/v FBS (Gibco, 26140-079). Cells were seeded in 384-well plates at a density of 4,000 cells/well. Compounds dissolved in DMSO were added using a digital dispense (D300E, Tecan) 10-point serial dilution. After two hours of treatment, cells were lysed for thirty minutes and then incubated with detection reagents per HTRF kit material and manufacturer's instructions. Fluorescence signal was measured with a multimode plate reader (Envision 2105, Perkin Elmer). Fluorescent signal was normalized to background and DMSO controls to obtain percent inhibition/activity for each compound.

Structures are written as SMILES. Like-named read-outs stand apart in the source and are kept apart here. Bounds are passed on as bounds.

From US20240124422A1, “MUTANT PI3K-ALPHA INHIBITORS AND THEIR USE AS PHARMACEUTICALS” (Prelude Therapeutics Incorporated, priority 2022, published 2024) come the findings set out here.

Turning to `Cc1cc(C(C)Nc2ccccc2C(=O)O)c2nc(N3CC4CC4C3)n(C)c(=O)c2c1` (single isomer, unassigned) [Example 24, 2-((1-(2-(3-azabicyclo[3.1.0]hexan-3-yl)-3,6-dimethyl-4-oxo-3,4-dihydro-quinazolin-8-yl)ethyl)amino)benzoic acid], the IC50 in experiment [1] (Homo sapiens, T47D, 2 h) is under 0.5 µM; in experiment [2] (Homo sapiens, SK-BR-3, 2 h) it was over 10 µM.
For `Cc1cc(C(C)Nc2ccccc2C(=O)O)c2nc(N3Cc4ccccc4C3)n(C(C)C)c(=O)c2c1` (single isomer, unassigned) [Example 27, 2-((1-(2-(isoindolin-2-yl)-3-isopropyl-6-methyl-4-oxo-3,4-dihydroquinazolin-8-yl)ethyl)amino)benzoic acid], in that order: under 0.5 µM and over 10 µM.
Turning to `Cc1cc(C(C)Nc2ccccc2C(=O)O)c2nc(N3Cc4cccnc4C3)n(C)c(=O)c2c1` (single isomer, unassigned) [Example 67, 2-((1-(2-(5,7-Dihydro-6H-pyrrolo[3,4-b]pyridin-6-yl)-3,6-dimethyl-4-oxo-3,4-dihydroquinazolin-8-yl)ethyl)amino)benzoic acid], the IC50 is under 0.5 µM in experiment [1] (Homo sapiens, T47D, 2 h) and over 10 µM in experiment [2] (Homo sapiens, SK-BR-3, 2 h).
With `[2H]C([2H])([2H])c1cc(C(C)Nc2ccccc2C(=O)O)c2nc(N3CC4CC4C3)n(C)c(=O)c2c1` (single isomer, unassigned) [Example 68], the IC50 in experiment [1] (Homo sapiens, T47D, 2 h) was under 0.5 µM; in experiment [2] (Homo sapiens, SK-BR-3, 2 h), over 10 µM.
Take `Cc1cc(C(C)Nc2ccccc2C(=O)O)c2nc(N3CC4CCC3C4)n(C)c(=O)c2c1` (single isomer, unassigned) [Example 99, 2-((1-(2-(2-Azabicyclo[2.2.1]heptan-2-yl)-3,6-dimethyl-4-oxo-3,4-dihydro-quinazolin-8-yl)ethyl)amino)benzoic acid]: the half-inhibitory concentration (IC50) in experiment [1] (Homo sapiens, T47D, 2 h) is under 0.5 µM; in experiment [2] (Homo sapiens, SK-BR-3, 2 h), over 10 µM.
For the compound `Cc1cc(C(C)Nc2ccccc2C(=O)O)c2nc(N3CC4CCC3C4)n(C)c(=O)c2c1` (single isomer, unassigned) [Example 100, 2-((1-(2-(2-Azabicyclo[2.2.1]heptan-2-yl)-3,6-dimethyl-4-oxo-3,4-dihydro-quinazolin-8-yl)ethyl)amino)benzoic acid], the half-maximal inhibitory concentration (IC50) in experiment [1] (read-out: T47D pAKT IC50) is under 0.5 µM; in experiment [2] it was over 10 µM.
As to `[2H]C([2H])([2H])n1c(N2CC3CC3C2)nc2c(C(C)Nc3ccccc3C(=O)O)cc(C)cc2c1=O` (single isomer, unassigned) [Example 104, 2-((1-(2-(3-Azabicyclo[3.1.0]hexan-3-yl)-6-methyl-3-(methyl-d3)-4-oxo-3,4-dihydroquinazolin-8-yl)ethyl)amino)benzoic acid], the IC50 in experiment [1] (Homo sapiens, T47D, 2 h) was under 0.5 µM; in experiment [2] (Homo sapiens, SK-BR-3, 2 h), over 10 µM.
`CC(Nc1ccccc1C(=O)O)c1cc(Cl)cc2c(=O)n(C)c(N3CC4CC4C3)nc12` (single isomer, unassigned) [Example 105, 2-((1-(2-(3-Azabicyclo[3.1.0]hexan-3-yl)-6-chloro-3-methyl-4-oxo-3,4-dihydroquinazolin-8-yl)ethyl)amino)benzoic acid]: the IC50 was under 0.5 µM in experiment [1] (Homo sapiens, T47D, 2 h) and over 10 µM in experiment [2] (Homo sapiens, SK-BR-3, 2 h).
In the case of `Cc1cc(C(C)Nc2ccccc2C(=O)O)c2nc(N3Cc4ccccc4C3)n(C)c(=O)c2c1` (stereo not drawn) [Example 1, 2-((1-(2-(isoindolin-2-yl)-3,6-dimethyl-4-oxo-3,4-dihydroquinazolin-8-yl)ethyl)amino)benzoic acid], the IC50 in experiment [1] (Homo sapiens, T47D, 2 h) is under 0.5 µM; in experiment [2] (Homo sapiens, SK-BR-3, 2 h) it was over 10 µM.
For the compound `Cc1cc(C(C)Nc2ccccc2C(=O)O)c2nc(N3Cc4ccc(F)cc4C3)n(C)c(=O)c2c1` (stereo not drawn) [Example 2, 2-((1-(2-(5-fluoroisoindolin-2-yl)-3,6-dimethyl-4-oxo-3,4-dihydroquinazolin-8-yl)ethyl)amino)benzoic acid], the IC50 in experiment [1] (Homo sapiens, T47D, 2 h) is under 0.5 µM; in experiment [2] (Homo sapiens, SK-BR-3, 2 h), over 10 µM.
For the compound `Cc1cc(C(C)Nc2ccccc2C(N)=O)c2nc(N3Cc4ccccc4C3)n(C)c(=O)c2c1` (stereo not drawn) [Example 4, 2-((1-(2-(isoindolin-2-yl)-3,6-dimethyl-4-oxo-3,4-dihydroquinazolin-8-yl)ethyl)amino)benzamide], the 50% inhibitory concentration (IC50) was 0.5 to 10 µM in experiment [1] (Homo sapiens, T47D, 2 h) and over 10 µM in experiment [2] (Homo sapiens, SK-BR-3, 2 h).
Consider `Cc1cc(C(C)Nc2ccccc2S(N)(=O)=O)c2nc(N3Cc4ccccc4C3)n(C)c(=O)c2c1` (stereo not drawn) [Example 6, 2-((1-(2-(isoindolin-2-yl)-3,6-dimethyl-4-oxo-3,4-dihydroquinazolin-8-yl)ethyl)amino)benzenesulfonamide], for which the IC50 was under 0.5 µM in experiment [1] (Homo sapiens, T47D, 2 h) and over 10 µM in experiment [2] (Homo sapiens, SK-BR-3, 2 h).
For the compound `CNS(=O)(=O)c1ccccc1NC(C)c1cc(C)cc2c(=O)n(C)c(N3Cc4ccccc4C3)nc12` (stereo not drawn) [Example 7, 2-((1-(2-(isoindolin-2-yl)-3,6-dimethyl-4-oxo-3,4-dihydroquinazolin-8-yl)ethyl)amino)-N-methylbenzenesulfonamide], the IC50 in experiment [1] (Homo sapiens, T47D, 2 h) was 0.5 to 10 µM; in experiment [2] (Homo sapiens, SK-BR-3, 2 h), over 10 µM.
For `Cc1cc(C(C)Nc2ccccc2S(C)(=O)=O)c2nc(N3Cc4ccccc4C3)n(C)c(=O)c2c1` (stereo not drawn) [Example 8, 2-(isoindolin-2-yl)-3,6-dimethyl-8-(1-((2-(methylsulfonyl)phenyl)amino)ethyl)quinazolin-4(3H)-one], in that order: 0.5 to 10 µM and over 10 µM.
As to `Cc1cc(C(C)Nc2ccccc2-c2nnn[nH]2)c2nc(N3Cc4ccccc4C3)n(C)c(=O)c2c1` (stereo not drawn) [Example 9, 8-(1-((2-(1H-tetrazol-5-yl)phenyl)amino)ethyl)-2-(isoindolin-2-yl)-3,6-dimethylquinazolin-4(3H)-one], the IC50 in experiment [1] (Homo sapiens, T47D, 2 h) is 0.5 to 10 µM; in experiment [2] (Homo sapiens, SK-BR-3, 2 h), over 10 µM.
In the case of `Cc1cc(C(C)Nc2ccccc2C(=O)NO)c2nc(N3Cc4ccccc4C3)n(C)c(=O)c2c1` (stereo not drawn) [Example 10, N-Hydroxy-2-((1-(2-(isoindolin-2-yl)-3,6-dimethyl-4-oxo-3,4-dihydroquinazolin-8-yl)ethyl)amino)benzamide], the IC50 in experiment [1] (Homo sapiens, T47D, 2 h) was 0.5 to 10 µM; in experiment [2] (Homo sapiens, SK-BR-3, 2 h), over 10 µM.
Turning to `Cc1cc(C(C)Nc2ccc(F)c(O)c2F)c2nc(N3Cc4ccccc4C3)n(C)c(=O)c2c1` (stereo not drawn) [Example 11, 8-(1-((2,4-difluoro-3-hydroxyphenyl)amino)ethyl)-2-(isoindolin-2-yl)-3,6-dimethylquinazolin-4(3H)-one], the IC50 in experiment [1] (Homo sapiens, T47D, 2 h) is 0.5 to 10 µM; in experiment [2] (Homo sapiens, SK-BR-3, 2 h), over 10 µM.
The compound `Cc1cc(C(C)Nc2ccccc2C(=O)O)c2nc(N3CC4CC(C4)C3)n(C)c(=O)c2c1` (stereo not drawn) [Example 116, 2-((1-(2-(3-Azabicyclo[3.1.1]heptan-3-yl)-3,6-dimethyl-4-oxo-3,4-dihydroquinazolin-8-yl)ethyl)amino)benzoic acid] gave an IC50 in experiment [1] (Homo sapiens, T47D, 2 h) of under 0.5 µM.
The same measure, in the same setting: with `Cc1cc(C(C)Nc2ccccc2C(=O)O)c2nc(N3CC4CC3C4)n(C)c(=O)c2c1` (stereo not drawn) [Example 117, 2-((1-(2-(2-Azabicyclo[2.1.1]hexan-2-yl)-3,6-dimethyl-4-oxo-3,4-dihydroquinazolin-8-yl)ethyl)amino)benzoic acid] the figure was 0.5 to 10 µM.
On to `CSc1ncc(NC(C)c2cc(C)cc3c(=O)n(C)c(N4CC5CC5C4)nc23)c(C(=O)O)n1` (stereo not drawn) [Example 118, 5-((1-(2-(3-Azabicyclo[3.1.0]hexan-3-yl)-3,6-dimethyl-4-oxo-3,4-dihydroquinazolin-8-yl)ethyl)amino)-2-(methylthio)pyrimidine-4-carboxylic acid], for which the IC50 in experiment [1] (Homo sapiens, T47D, 2 h) lay in the range of 0.5 to 10 µM.
In experiment [1] (Homo sapiens, T47D, 2 h), `Cc1cc(C(C)Nc2cccc(F)c2C(=O)O)c2nc(N3CC4CC4C3)n(C)c(=O)c2c1` (stereo not drawn) [Example 121, 2-[1-[2-(3-Azabicyclo[3.1.0]hexan-3-yl)-3,6-dimethyl-4-oxoquinazolin-8-yl]ethylamino]-6-fluorobenzoic acid] gave an IC50 of under 0.5 µM.
On the same count and under the same terms, the value for `COc1ccc(NC(C)c2cc(C)cc3c(=O)n(C)c(N4CC5CC5C4)nc23)c(C(=O)O)c1` (stereo not drawn) [Example 122, 2-[1-[2-(3-Azabicyclo[3.1.0]hexan-3-yl)-3,6-dimethyl-4-oxoquinazolin-8-yl]ethylamino]-5-methoxybenzoic acid] was 0.5 to 10 µM; that for `CSc1ccc(NC(C)c2cc(C)cc3c(=O)n(C)c(N4CC5CC5C4)nc23)c(C(=O)O)n1` (stereo not drawn) [Example 124, 3-[1-[2-(3-Azabicyclo[3.1.0]hexan-3-yl)-3,6-dimethyl-4-oxoquinazolin-8-yl]ethylamino]-6-methylsulfanylpyridine-2-carboxylic acid] was under 0.5 µM.
On to `Cc1cc(C(C)Nc2cc(F)ncc2C(=O)O)c2nc(N3CC4CC4C3)n(C)c(=O)c2c1` (stereo not drawn) [Example 125, 4-((1-(2-(3-Azabicyclo[3.1.0]hexan-3-yl)-3,6-dimethyl-4-oxo-3,4-dihydroquinazolin-8-yl)ethyl)amino)-6-fluoronicotinic acid], for which the IC50 in experiment [1] (Homo sapiens, T47D, 2 h) was 0.5 to 10 µM.
On to `Cc1cc(C(C)Nc2cc(Cl)nnc2C(=O)O)c2nc(N3CC4CC4C3)n(C)c(=O)c2c1` (stereo not drawn) [Example 126, 4-((1-(2-(3-Azabicyclo[3.1.0]hexan-3-yl)-3,6-dimethyl-4-oxo-3,4-dihydroquinazolin-8-yl)ethyl)amino)-6-chloropyridazine-3-carboxylic acid], for which the IC50 in experiment [1] (Homo sapiens, T47D, 2 h) was 0.5 to 10 µM.
